Five molecules from US20110003865A1, “NOVEL 2-DIETHYLAMINO-3-AMIDO-6-AMINO-PYRIDINE DERIVATIVES USEFUL AS POTASSIUM CHANNEL ACTIVATORS” (priority 2007, published 2011) can be followed below.

In the test the target is T1, human Kv72+3 channels (Homo sapiens, UniProt O43525+O43526).
T1 construct: expressed in transfected cells; host or cells: HEK293
T1 sequence (O43526 whole entry): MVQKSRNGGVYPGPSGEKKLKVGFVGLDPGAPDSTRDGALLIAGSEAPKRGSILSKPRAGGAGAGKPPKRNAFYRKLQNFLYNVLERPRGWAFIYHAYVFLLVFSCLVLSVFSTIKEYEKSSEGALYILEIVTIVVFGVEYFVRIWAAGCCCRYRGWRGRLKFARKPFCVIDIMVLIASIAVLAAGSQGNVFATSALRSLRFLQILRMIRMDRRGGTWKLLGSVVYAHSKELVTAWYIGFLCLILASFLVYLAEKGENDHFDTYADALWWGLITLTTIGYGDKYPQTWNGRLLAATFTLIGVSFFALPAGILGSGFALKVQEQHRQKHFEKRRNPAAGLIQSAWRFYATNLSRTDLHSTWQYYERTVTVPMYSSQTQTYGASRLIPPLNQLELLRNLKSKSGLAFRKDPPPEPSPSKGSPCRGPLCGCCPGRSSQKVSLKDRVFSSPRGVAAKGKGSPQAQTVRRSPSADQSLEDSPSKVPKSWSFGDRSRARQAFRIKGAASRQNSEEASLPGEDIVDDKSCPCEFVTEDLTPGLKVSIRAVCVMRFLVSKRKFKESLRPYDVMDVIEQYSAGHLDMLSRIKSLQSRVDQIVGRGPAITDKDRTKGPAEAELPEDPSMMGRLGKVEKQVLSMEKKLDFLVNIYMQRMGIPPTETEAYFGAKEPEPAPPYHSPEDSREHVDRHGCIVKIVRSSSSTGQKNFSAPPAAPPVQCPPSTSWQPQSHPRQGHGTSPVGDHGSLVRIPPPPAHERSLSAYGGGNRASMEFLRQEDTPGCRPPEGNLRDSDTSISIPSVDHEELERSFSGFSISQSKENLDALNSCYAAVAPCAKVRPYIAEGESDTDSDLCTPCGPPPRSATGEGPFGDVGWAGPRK
T1 sequence (O43525 whole entry): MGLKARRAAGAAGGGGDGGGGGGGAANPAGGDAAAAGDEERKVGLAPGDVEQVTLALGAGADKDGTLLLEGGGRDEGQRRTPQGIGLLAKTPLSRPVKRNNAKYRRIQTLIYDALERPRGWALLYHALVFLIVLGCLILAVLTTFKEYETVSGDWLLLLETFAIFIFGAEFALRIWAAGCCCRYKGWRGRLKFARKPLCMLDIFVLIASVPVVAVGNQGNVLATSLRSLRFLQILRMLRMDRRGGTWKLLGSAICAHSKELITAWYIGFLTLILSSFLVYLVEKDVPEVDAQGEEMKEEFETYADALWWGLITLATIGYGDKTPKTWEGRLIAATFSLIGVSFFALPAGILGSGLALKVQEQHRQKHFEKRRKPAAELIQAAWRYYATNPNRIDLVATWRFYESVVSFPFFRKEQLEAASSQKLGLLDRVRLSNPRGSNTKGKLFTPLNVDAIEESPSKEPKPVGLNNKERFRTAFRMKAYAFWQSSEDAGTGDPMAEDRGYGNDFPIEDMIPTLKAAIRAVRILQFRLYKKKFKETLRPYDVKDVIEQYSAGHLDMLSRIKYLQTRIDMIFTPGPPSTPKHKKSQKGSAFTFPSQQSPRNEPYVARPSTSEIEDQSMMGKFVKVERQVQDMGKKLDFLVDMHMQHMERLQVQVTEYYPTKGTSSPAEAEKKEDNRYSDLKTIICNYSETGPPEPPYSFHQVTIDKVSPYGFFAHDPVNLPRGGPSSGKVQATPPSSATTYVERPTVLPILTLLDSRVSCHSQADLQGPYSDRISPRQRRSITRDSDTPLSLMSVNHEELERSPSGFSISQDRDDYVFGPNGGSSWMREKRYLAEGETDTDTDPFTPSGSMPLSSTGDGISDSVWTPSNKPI
The test can be described thus: Patch-clamp, HEK293 cells stably expressing human Kv7.2+3 channels. In kind it is cell-based. As to conditions: conc. 0.03 μM, −30 mV, 20 ms; current relative to baseline current defined as 100%. The source says: The effect obtained by these channel activators is described as a percentage increase in baseline current at a given concentration. The baseline current is defined as 100%, and an increase in current is expressed relative to this, i.e. an increase from 1 nA to 1.2 nA is reported as 120%.
(In general: Patch clamp records ionic current or voltage across a cell membrane.)
On to `CCN(CC)c1nc(NCc2ccc(F)cc2)ccc1NC(=O)[C@@H]1C[C@H]1c1ccccc1` (relative stereo) [Compound 7, trans-2-Phenyl-cyclopropanecarboxylic acid [2-diethylamino-6-(4-fluoro-benzylamino)-pyridin-3-yl]-amide], for which the “IK (%)” value amounted to 520%.
The result for `CCN(CC)c1nc(NCc2ccc(F)cc2)ccc1NC(=O)Cc1cc(F)cc(F)c1` [Compound 1, N-[2-Diethylamino-6-(4-fluoro-benzylamino)-pyridin-3-yl]-2-(3,5-difluoro-phenyl)-acetamide] reads 1247%.
The result for `CCN(CC)c1nc(NCc2ccc(F)cc2)ccc1NC(=O)Cc1ccc(C(F)(F)F)c(F)c1` [Compound 3, N-[2-Diethylamino-6-(4-fluoro-benzylamino)-pyridin-3-yl]-2-(3-fluoro-4-trifluoromethyl-phenyl)-acetamide] reads 282%.
In the case of `CCN(CC)c1nc(NCc2ccc(F)cc2)ccc1NC(=O)[C@@H](C)c1ccccc1` [Compound 4, (S)—N-[2-Diethylamino-6-(4-fluoro-benzylamino)-pyridin-3-yl]-2-phenyl-propionamide] it was 334%; in that of `CCN(CC)c1nc(NCc2ccc(F)cc2)ccc1NC(=O)CC(C)(C)C` [Compound 9, N-[2-Diethylamino-6-(4-fluoro-benzylamino)-pyridin-3-yl]-3,3-dimethyl-butyramide], 550%.
